{"source": "patent US11957758B2", "about": "“Pharmaceutical composition of docetaxel conjugate and preparation method” (SHENZHEN SALUBRIS PHARMACEUTICALS CO. LTD, priority 2017, dated 2024)", "key": {"[1]": {"tested_on": "4T1 breast cancer", "assay": "4T1 breast cancer lung metastasis model of mice, experiment (2)", "assay_type": "in vivo, BALB/c mice", "settings": "for increase in breast tumor weight compared with the blank control group / increase in the number of metastatic nodules on the lung surface compared with the blank control group: tail vein once a week for 4 weeks, D28, DTX 5.7 mg/kg, DTX 5.7+MDA-1 4.53 mg/kg, DTX 5.7+MDA-1-linker 4.43 mg/kg; for increase in breast tumor weight compared with the blank control group: FIG. 4A", "procedure": "0.1 mL 4T1 cells (1.5×10^5/per mouse) were inoculated in the fourth mammary fat pad of female BALB/c mice.\n(§1) Grouping and administration: BALB/c mice were inoculated with 4T1 breast cancer cells in the mammary fat pad. The day of inoculation was DO, and mice were administered in groups on the fourth day after inoculation. The experiment consisted of five groups: • (1) solvent control group (blank control group), • (2) IA1 10 mg/kg group, • (3) DTX (Docetaxel) 5.7 mg/kg group, • (4) DTX (5.7 mg/kg)+MDA-1 (4.53 mg/kg) group, • (5) DTX (5.7 mg/kg)+MDA-1-linker (4.43 mg/kg) group. • (3), (4) and (5) are positive control groups.\n(§2) Each group had 10 animals. Mice were administered by tail vein injection once a week for 4 weeks. Animal weight and tumor volume were monitored during the administration. Animals were weighed every 2-3 days, and the long diameter and short diameter of breast tumors were measured with a vernier caliper. The tumor size was calculated by the formula: (½)×long diameter×(short diameter)^2. The experiment was terminated on the 28th day (D28). The mice were sacrificed by cervical dislocation after eyeball blood collection. The breast tumor and lung were weighed. The number of metastatic nodules on the lung surface was counted. The results of tumor weight are shown in FIG. 4A, and the results of the number of metastatic nodules on the lung surface are shown in FIG. 4B."}, "[2]": {"tested_on": "4T1 breast cancer", "assay": "4T1 breast cancer lung metastasis model of mice, experiment (1)", "assay_type": "in vivo, BALB/c mice", "settings": "for breast tumor weight compared to the blank control group / number of metastatic nodules on the lung surface compared to the blank control group: tail vein once a week for 4 weeks, D28, IA1 10 mg/kg, DTX 5.7 mg/kg, MDC 10 mg/kg (equimolar); for breast tumor weight compared to the blank control group: FIG. 3A; for number of metastatic nodules on the lung surface compared to the blank control group: FIG. 3B", "procedure": "• (1) Cell culture and tumor inoculation: 4T1 cells were cultured in 1640 medium (Gibco) containing 10% fetal bovine serum (Hyclone Corp, USA), 1% glutamine and 1% penicillin-streptomycin. The 4T1 cells in logarithmic growth phase were collected and the cell concentration was adjusted to 1.5×10^6/mL. 0.1 mL 4T1 cells (1.5×10^5/per mouse) were inoculated in the fourth mammary fat pad of female BALB/c mice.\nas §1, with “DO. Mice” for “DO, and mice”, “four” for “five”, “MDC 10 mg/kg” for “DTX (5.7 mg/kg)+MDA-1 (4.53 mg/kg) group, • (5) DTX (5.7 mg/kg)+MDA-1-linker (4.43 mg/kg)”, “(3) and” for “(3),”, “(4)” for “(4) and (5)”\nas §2, with “3A,” for “4A,”, “3B.” for “4B.”"}, "[3]": {"tested_on": "4T1 breast cancer", "assay": "4T1 breast cancer lung metastasis model of mice, experiment (3)", "assay_type": "in vivo, BALB/c mice", "settings": "for increase in tumor weight compared with the blank control group / increase in tumor volume compared with the blank control group: tail vein once a week for 4 weeks, IA1 5 and 10 mg/kg, DTX 2.85 mg/kg, DTX 2.85+MDA-1 2.26 mg/kg, DTX 2.85+MDA-1-linker 2.21 mg/kg; for increase in tumor weight compared with the blank control group: D28, FIG. 5B; for increase in tumor volume compared with the blank control group: FIG. 5A", "procedure": "[…]. Grouping and administration: BALB/c mice were inoculated with 4T1 breast cancer cells in the mammary fat pad. The day of inoculation was DO, and mice were administered in groups on the fourth day after inoculation. The experiment consisted of six groups: • (1) solvent control group (blank control group), • (2) IA1 5 mg/kg group, • (3) IA1 10 mg/kg group, • (4) DTX (Docetaxel) 2.85 mg/kg group, • (5) DTX (2.85 mg/kg)+MDA-1 (2.26 mg/kg) group, • (6) DTX (2.85 mg/kg)+MDA-1-linker (2.21 mg/kg) group. • (4), (5) and (6) are positive control groups.\nas §2, with “counted.” for “counted. The results of tumor weight are shown in FIG. 4A, and the results of the number of metastatic nodules on the lung surface are shown in FIG. 4B.”"}, "[4]": {"assay": "Stability of IA1 in different pH environments (HPLC main peak purity)", "assay_type": "physicochemical", "procedure": "The method for measuring the impurity content in the following examples is as follows, with reference to 0512 liquid chromatography method in the “Chinese Pharmacopoeia” 2015 Edition Volume IV. 20 μl of the system suitability solution, the reference solution, and the test solution are injected into the liquid chromatograph respectively, and the chromatograms are recorded. Calculation formula: each\nAT is the peak area of each impurity in the test solution; AS is the average peak area of the main peak in the reference solution; CT is the concentration (mg/ml) of the test solution; Cs is docetaxel conjugate concentration (mg/ml) in the reference solution; F is the correction factor for each impurity.\nHPLC conditions: An octadecyl bonded silica gel column (C18, 4.6×150 mm, 3.5 μm); gradient elution, phase A: acetonitrile: 0.1% phosphoric acid=45:55, phase B: acetonitrile; detection wavelength: 225 nm; flow rate: 1.0 ml/min; column temperature: 40° C."}}, "data": [{"compound": "CC(=O)O[C@@]12CO[C@@H]1C[C@H](O)[C@@]1(C)C(=O)[C@H](O)C3=C(C)[C@@H](OC(=O)[C@H](O)[C@@H](NC(=O)OC(C)(C)C)c4ccccc4)C[C@@](O)([C@@H](OC(=O)c4ccccc4)[C@H]21)C3(C)C", "note": "[docetaxel]", "values": [{"measurement": "increase in breast tumor weight compared with the blank control group", "setting": "[1]; IA1 10 mg/kg", "result": "significantly inhibited"}, {"measurement": "increase in the number of metastatic nodules on the lung surface compared with the blank control group", "setting": "[1]; IA1 10 mg/kg, FIG. 4B", "result": "significantly inhibited"}, {"measurement": "breast tumor weight compared to the blank control group", "setting": "[2]", "result": "significantly inhibited"}, {"measurement": "number of metastatic nodules on the lung surface compared to the blank control group", "setting": "[2]", "result": "significantly inhibited"}, {"measurement": "increase in tumor weight compared with the blank control group", "setting": "[3]", "result": "significantly inhibited"}, {"measurement": "increase in tumor volume compared with the blank control group", "setting": "[3]", "result": "significantly inhibited"}]}, {"compound": "CC(=O)O[C@@]12CO[C@@H]1C[C@H](O)[C@@]1(C)C(=O)[C@H](O)C3=C(C)[C@@H](OC(=O)[C@H](OC(=O)CCC(=O)NCCCC[C@H](NC(=O)CC[C@@H](NC(=O)[C@H](C)NC(=O)/C=C/c4ccc(F)cc4Cl)C(N)=O)C(=O)O)[C@@H](NC(=O)OC(C)(C)C)c4ccccc4)C[C@@](O)([C@@H](OC(=O)c4ccccc4)[C@H]21)C3(C)C", "note": "[IA1]", "values": [{"measurement": "increase of inhibitory effect on lung surface metastatic nodules compared with docetaxel+MDA-1", "setting": "[1]; IA1 10 mg/kg versus DTX 5.7 mg/kg+MDA-1 4.53 mg/kg", "result": 27.9, "unit": "%"}, {"measurement": "increase of inhibitory effect on lung surface metastatic nodules compared with docetaxel+MDA-1+linker", "setting": "[1]; IA1 10 mg/kg versus DTX 5.7 mg/kg+MDA-1-linker 4.43 mg/kg", "result": 18.6, "unit": "%"}, {"measurement": "difference in the inhibitory effects on lung surface nodules versus positive control groups", "setting": "[1]; IA1 10 mg/kg, FIG. 4B", "result": "significant difference"}, {"measurement": "increase in breast tumor weight compared with the blank control group", "setting": "[1]; IA1 10 mg/kg", "result": "significantly inhibited"}, {"measurement": "increase in the number of metastatic nodules on the lung surface compared with the blank control group", "setting": "[1]; IA1 10 mg/kg, FIG. 4B", "result": "significantly inhibited"}, {"measurement": "Decrease in purity of main peak within 14 h (%)", "setting": "[4]; Acetonitrile/pH 3.0 buffer", "result": 0.11, "unit": "%"}, {"measurement": "Decrease in purity of main peak within 14 h (%)", "setting": "[4]; Acetonitrile/pH 4.0 buffer", "result": 0.19, "unit": "%"}, {"measurement": "Decrease in purity of main peak within 14 h (%)", "setting": "[4]; Acetonitrile/pH 5.0 buffer", "result": 0.19, "unit": "%"}, {"measurement": "Decrease in purity of main peak within 14 h (%)", "setting": "[4]; Acetonitrile/pH 6.0 buffer", "result": 0.51, "unit": "%"}, {"measurement": "Decrease in purity of main peak within 14 h (%)", "setting": "[4]; Acetonitrile/pH 7.0 buffer", "result": 7.38, "unit": "%"}, {"measurement": "Decrease in purity of main peak within 14 h (%)", "setting": "[4]; Acetonitrile/pH 8.0 buffer", "result": 22.55, "unit": "%"}, {"measurement": "inhibitory effects on tumor and cancer metastasis", "setting": "[2]; same experiment, compared with IA1", "result": "the most excellent"}, {"measurement": "breast tumor weight compared to the blank control group", "setting": "[2]", "result": "significantly inhibited"}, {"measurement": "number of metastatic nodules on the lung surface compared to the blank control group", "setting": "[2]", "result": "significantly inhibited"}, {"measurement": "difference in the inhibitory effects on tumor volume and weight versus positive control groups", "setting": "[3]; IA1 versus docetaxel, docetaxel+MDA-1, docetaxel+MDA-1-linker, FIGS. 5A and 5B", "result": "significant difference"}, {"measurement": "increase in tumor weight compared with the blank control group", "setting": "[3]", "result": "significantly inhibited"}, {"measurement": "increase in tumor volume compared with the blank control group", "setting": "[3]", "result": "significantly inhibited"}]}]}
